According to PubChem BioAssay AID2060496 (Molecular Pharmacology Branch, DTP, NCI, 2025):

Test system: 276233-004-R-J1-PDC complex spheroid viability
Test: Anticancer human tumor 276233-004-R-J1-PDC patient-derived colon adenocarcinoma cell line growth inhibition [GQUAD]
Settings: for IC50: curve of first compound; for viability, T/C: stronger effect = lower value
How it was run: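 Multi-cell-type spheroids of tumor cells with HUVEC and mesenchymal stem cells, treated with drug combinations. Concentrations descend in half-log steps from near clinical Cmax, or from 10 microM where Cmax is unknown; viability read-out.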

[1] = second compound 0.0316 µM, first compound 0.0316 µM
[2] = second compound 0.0316 µM, first compound 0.1 µM
[3] = second compound 0.0316 µM, first compound 0.316 µM
[4] = second compound 0.0316 µM, first compound 1 µM
[5] = second compound 0.0316 µM, first compound 3.16 µM
[6] = second compound 0.0316 µM, first compound 10 µM
[7] = second compound 0.1 µM, first compound 0.0316 µM
[8] = second compound 0.1 µM, first compound 0.1 µM
[9] = second compound 0.1 µM, first compound 0.316 µM
[10] = second compound 0.1 µM, first compound 1 µM
[11] = second compound 0.1 µM, first compound 3.16 µM
[12] = second compound 0.1 µM, first compound 10 µM
[13] = second compound 0.316 µM, first compound 0.0316 µM
[14] = second compound 0.316 µM, first compound 0.1 µM
[15] = second compound 0.316 µM, first compound 0.316 µM
[16] = second compound 0.316 µM, first compound 1 µM
[17] = second compound 0.316 µM, first compound 3.16 µM
[18] = second compound 0.316 µM, first compound 10 µM
[19] = second compound 1 µM, first compound 0.0316 µM
[20] = second compound 1 µM, first compound 0.1 µM
[21] = second compound 1 µM, first compound 0.316 µM
[22] = second compound 1 µM, first compound 1 µM
[23] = second compound 1 µM, first compound 3.16 µM
[24] = second compound 1 µM, first compound 10 µM
[25] = second compound 3.16 µM, first compound 0.0316 µM
[26] = second compound 3.16 µM, first compound 0.1 µM
[27] = second compound 3.16 µM, first compound 0.316 µM
[28] = second compound 3.16 µM, first compound 1 µM
[29] = second compound 3.16 µM, first compound 3.16 µM
[30] = second compound 3.16 µM, first compound 10 µM
[31] = second compound 10 µM, first compound 0.0316 µM
[32] = second compound 10 µM, first compound 0.1 µM
[33] = second compound 10 µM, first compound 0.316 µM
[34] = second compound 10 µM, first compound 1 µM
[35] = second compound 10 µM, first compound 3.16 µM
[36] = second compound 10 µM, first compound 10 µM
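Also: spheroids exposed to drugs for seven days.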
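For viability, T/C in this document: 100% = DMSO vehicle control viability.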

CC(C)n1c(=O)n(C)c2cnc3cc(F)c(-c4ccc(OCCCN5CCCCC5)nc4)cc3c21 + CN(C)c1ccc(Nc2c3ccc(NC(=O)CCN4CCCC4)cc3nc3cc(NC(=O)CCN4CCCC4)ccc23)cc1
IC50 (second compound 0.0316 µM): > 10 µM
IC50 (second compound 0.1 µM): > 10 µM
IC50 (second compound 0.316 µM): 8.48 µM
IC50 (second compound 1 µM): > 10 µM
IC50 (second compound 3.16 µM): > 10 µM
IC50 (second compound 10 µM): < 0.0316 µM
viability, T/C [1]: 95.3%
viability, T/C [2]: 103%
viability, T/C [3]: 99.6%
viability, T/C [4]: 92.9%
viability, T/C [5]: 69.2%
viability, T/C [6]: 53.1%
viability, T/C [7]: 91.4%
viability, T/C [8]: 99.2%
viability, T/C [9]: 100%
viability, T/C [10]: 89.2%
viability, T/C [11]: 60.1%
viability, T/C [12]: 55.5%
viability, T/C [13]: 86.7%
viability, T/C [14]: 84.3%
viability, T/C [15]: 75.7%
viability, T/C [16]: 86.1%
viability, T/C [17]: 68.7%
viability, T/C [18]: 46.9%
viability, T/C [19]: 61.7%
viability, T/C [20]: 57.4%
viability, T/C [21]: 62.1%
viability, T/C [22]: 72.7%
viability, T/C [23]: 72.7%
viability, T/C [24]: 64.8%
viability, T/C [25]: 55.9%
viability, T/C [26]: 53.6%
viability, T/C [27]: 82.4%
viability, T/C [28]: 90.1%
viability, T/C [29]: 81.3%
viability, T/C [30]: 36.6%
viability, T/C [31]: 46.4%
viability, T/C [32]: 54%
viability, T/C [33]: 63.4%
viability, T/C [34]: 83.1%
viability, T/C [35]: 107%
viability, T/C [36]: 26.4%

Nc1ccn(C2OC(CO)C(O)C2(F)F)c(=O)n1 (stereo not drawn) + CN(C)c1ccc(Nc2c3ccc(NC(=O)CCN4CCCC4)cc3nc3cc(NC(=O)CCN4CCCC4)ccc23)cc1
IC50 (second compound 0.0316 µM): > 10 µM
IC50 (second compound 0.1 µM): > 10 µM
IC50 (second compound 0.316 µM): > 10 µM
IC50 (second compound 1 µM): > 10 µM
IC50 (second compound 3.16 µM): > 10 µM
IC50 (second compound 10 µM): > 10 µM
viability, T/C [1]: 97.1%
viability, T/C [2]: 109%
viability, T/C [3]: 96.2%
viability, T/C [4]: 90.6%
viability, T/C [5]: 79.6%
viability, T/C [6]: 59%
viability, T/C [7]: 86.1%
viability, T/C [8]: 88.6%
viability, T/C [9]: 89.7%
viability, T/C [10]: 94.5%
viability, T/C [11]: 73.8%
viability, T/C [12]: 65%
viability, T/C [13]: 71.8%
viability, T/C [14]: 78.7%
viability, T/C [15]: 59.6%
viability, T/C [16]: 56.3%
viability, T/C [17]: 56.6%
viability, T/C [18]: 66.9%
viability, T/C [19]: 70.8%
viability, T/C [20]: 53.9%
viability, T/C [21]: 53.6%
viability, T/C [22]: 51%
viability, T/C [23]: 57.9%
viability, T/C [24]: 57.8%
viability, T/C [25]: 64.2%
viability, T/C [26]: 60.5%
viability, T/C [27]: 56%
viability, T/C [28]: 58.1%
viability, T/C [29]: 44.7%
viability, T/C [30]: 53.8%
viability, T/C [31]: 56.7%
viability, T/C [32]: 57.9%
viability, T/C [33]: 47.5%
viability, T/C [34]: 65.9%
viability, T/C [35]: 61.4%
viability, T/C [36]: 47.2%

CC1COCCN1c1cc(-c2ccnn2C)c2ccnc(-c3ccn[nH]3)c2n1 (stereo not drawn) + Cc1cnc(CNC(=O)c2c(=O)c3ccc(N4CCCN(C)CC4)nc3n3c2sc2ccccc23)cn1
IC50 (second compound 0.0316 µM): > 10 µM
IC50 (second compound 0.1 µM): > 10 µM
IC50 (second compound 0.316 µM): 3.7 µM
IC50 (second compound 1 µM): 4.44 µM
IC50 (second compound 3.16 µM): 3.32 µM
IC50 (second compound 10 µM): 1.07 µM
viability, T/C [1]: 99.5%
viability, T/C [2]: 57.5%
viability, T/C [3]: 78.7%
viability, T/C [4]: 56%
viability, T/C [5]: 63.2%
viability, T/C [6]: 42.5%
viability, T/C [7]: 79.6%
viability, T/C [8]: 86.5%
viability, T/C [9]: 63.2%
viability, T/C [10]: 67.2%
viability, T/C [11]: 56.6%
viability, T/C [12]: 55.1%
viability, T/C [13]: 73.1%
viability, T/C [14]: 67.1%
viability, T/C [15]: 65.9%
viability, T/C [16]: 58.9%
viability, T/C [17]: 51.3%
viability, T/C [18]: 41.8%
viability, T/C [19]: 68.9%
viability, T/C [20]: 64.7%
viability, T/C [21]: 67.4%
viability, T/C [22]: 58.4%
viability, T/C [23]: 52.3%
viability, T/C [24]: 43.5%
viability, T/C [25]: 63.1%
viability, T/C [26]: 57.3%
viability, T/C [27]: 62%
viability, T/C [28]: 55.8%
viability, T/C [29]: 49.7%
viability, T/C [30]: 41.1%
viability, T/C [31]: 53.4%
viability, T/C [32]: 50.6%
viability, T/C [33]: 51%
viability, T/C [34]: 47.2%
viability, T/C [35]: 49.2%
viability, T/C [36]: 38.5%

O=C(c1cc(Cc2n[nH]c(=O)c3ccccc23)ccc1F)N1CCN(C(=O)C2CC2)CC1 + CN(C)c1ccc(Nc2c3ccc(NC(=O)CCN4CCCC4)cc3nc3cc(NC(=O)CCN4CCCC4)ccc23)cc1
IC50 (second compound 0.0316 µM): > 10 µM
IC50 (second compound 0.1 µM): > 10 µM
IC50 (second compound 0.316 µM): > 10 µM
IC50 (second compound 1 µM): > 10 µM
IC50 (second compound 3.16 µM): > 10 µM
IC50 (second compound 10 µM): < 0.0316 µM
viability, T/C [1]: 76.4%
viability, T/C [2]: 83.4%
viability, T/C [3]: 91.8%
viability, T/C [4]: 125%
viability, T/C [5]: 77.4%
viability, T/C [6]: 82%
viability, T/C [7]: 98.9%
viability, T/C [8]: 100%
viability, T/C [9]: 97.6%
viability, T/C [10]: 84.4%
viability, T/C [11]: 76%
viability, T/C [12]: 88.1%
viability, T/C [13]: 75.5%
viability, T/C [14]: 73.8%
viability, T/C [15]: 69.5%
viability, T/C [16]: 65%
viability, T/C [17]: 81.4%
viability, T/C [18]: 68.6%
viability, T/C [19]: 71.4%
viability, T/C [20]: 55.4%
viability, T/C [21]: 49.8%
viability, T/C [22]: 52.9%
viability, T/C [23]: 52%
viability, T/C [24]: 55.5%
viability, T/C [25]: 52.7%
viability, T/C [26]: 53.4%
viability, T/C [27]: 52.1%
viability, T/C [28]: 55.6%
viability, T/C [29]: 48.5%
viability, T/C [30]: 53.1%
viability, T/C [31]: 41.7%
viability, T/C [32]: 63.3%
viability, T/C [33]: 48.9%
viability, T/C [34]: 57%
viability, T/C [35]: 55.2%
viability, T/C [36]: 67.3%
